Source: US5965743A, “N-substituted imidazol derivative” (Nippon Soda Co., Ltd., priority 1994, dated 1999)
Read-outs that look alike come from different tables or passages of the source.

Assays:
[1] = test system: biosynthesis of cholesterol; assay: Inhibitory effect on biosynthesis of cholesterol in cell-free biosystem; assay type: biochemical, rat (SD-strain); details: cell-free rat liver enzyme system, 90 min, 37° C., pH 7.4; read-out: 50% Inhibitory Concentration (IC50), cholesterol biosynthesis
Protocol: Inhibitory Effect on Biosynthesis of Cholesterol in Cell-free Biosystem
(1) Preparation of Enzyme Reaction System
(§1) The preparation of the enzymatic system for the biosynthesis of cholesterol in rats was carried out according to the method described in Biochimica et Biophysica Acta, Vol.486, pp 70-81, 1977.
(§2) More particularly, SD-strain female rats weighing from […] were fed for 7 to 10 days with a diet containing 2% cholestyramine to enhance their biosynthetic activity of cholesterol. After killed the rats by means of depletion of blood in midnight, the livers thereof were removed and homogenized with a double volume of 0.1 M potassium phosphate buffer solution (pH 7.4) containing 15 mM nicotine amide and 2 mM magnesium chloride by using a loose fitting-type teflon homogenizer. The supernatant obtained by centrifuging the homogenate at 12,000×g for 30 min. was further centrifuged at 105,000×g for 90 min., thereby separating it to the microsome fraction and the supernatant fraction. The supernatant obtained were kept as the fraction resulting in the precipitation in 40-80% ammonium sulfate (hereinafter referred to as "soluble fraction"). Each of the soluble fraction and the microsome fraction were independently adjusted with 0.1 M potassium phosphate buffer solution (pH 7.4) to the volumes of 1 ml/g of liver and 1 ml/3 g of liver, respectively, and were kept and used in the subsequent tests as an enzyme solution for the mixing ratio of 16:1.
(2) Method for Measuring Cholesterol Biosynthesis Activity
(§3) Cholesterol biosynthesis activity was measured according to the method described in Biochimica Biophysica Acta, Vol.486, pp 70-81, 1977. 2 μl dimethylsulfoxide solution of the test compound were added to a solution composed of 50 μl of the enzyme solution prepared in (1) described above, 0.1 M potassium phosphate buffer solution (pH 7.4), 1 mM ATP, 5 mM glucose-1-phosphate, 6 mM glutathione, 6 mM magnesium chloride, 0.04 mM coenzyme A, 0.25 mM NAD, 0.25 mM NADP and 1 mM 2-^14 C-sodium acetate (111 MBq./mmol), and the resultant solution was adjusted to the whole volume of 0.2 ml and then allowed to a reaction for 90 min. at 37° C. while shaking. The reaction was then stopped by adding 1 ml of 15% ethanol solution of potassium hydroxide, and the solution was then heated for 1 hour at 75° C. After extracted unsaponificated products with hexane from the solution, the solution was then condensed and dried to the hard state and subsequently dissolved in small volume of a mixture of chloroform and methanol (mixing ratio; 1:2). The resultant chloroform-methanol solution was spotted on a pre-coated silica gel TLC plate, then developed with a developer composed of benzene and ethyl acetate (mixing ratio; 9:1). The cholesterol spot was then taken out from the plate, and the radient activity of the spot was measured by using a liquid scintillation counter. Based on the radio-activity measured, mthe 50% inhibitory concentration (IC50) of the compounds of the present invention were determined.

[2] = molecular target: T1, squalene-2,3-oxide cyclase (Rattus norvegicus, UniProt P48450); assay: Sterol amount synthesized in cell-free cholesterol biosynthesis system (squalene-2,3-epoxide accumulation); assay type: biochemical, rat (SD-strain); details: average of 6 results
T1 sequence (P48450 2-733): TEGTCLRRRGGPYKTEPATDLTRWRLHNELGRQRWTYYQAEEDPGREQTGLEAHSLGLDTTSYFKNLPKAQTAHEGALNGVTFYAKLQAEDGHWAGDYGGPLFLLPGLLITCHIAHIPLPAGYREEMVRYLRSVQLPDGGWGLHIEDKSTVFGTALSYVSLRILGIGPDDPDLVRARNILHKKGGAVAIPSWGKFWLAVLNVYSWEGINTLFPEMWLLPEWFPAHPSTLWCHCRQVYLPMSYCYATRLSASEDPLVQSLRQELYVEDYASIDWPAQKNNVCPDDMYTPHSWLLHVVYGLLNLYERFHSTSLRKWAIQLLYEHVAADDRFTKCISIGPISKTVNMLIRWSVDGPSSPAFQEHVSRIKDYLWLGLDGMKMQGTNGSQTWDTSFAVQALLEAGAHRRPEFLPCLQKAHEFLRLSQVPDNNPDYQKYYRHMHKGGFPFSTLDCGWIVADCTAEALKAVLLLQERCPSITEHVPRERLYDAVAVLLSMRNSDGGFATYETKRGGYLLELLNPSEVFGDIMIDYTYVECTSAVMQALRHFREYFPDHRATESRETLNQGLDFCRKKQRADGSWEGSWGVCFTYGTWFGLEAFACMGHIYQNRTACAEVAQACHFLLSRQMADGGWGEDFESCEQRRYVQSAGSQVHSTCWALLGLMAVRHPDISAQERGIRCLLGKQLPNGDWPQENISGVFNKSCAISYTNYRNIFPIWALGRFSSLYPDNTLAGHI
Protocol: as §1, §2, §3
On the other hand, after determining the position of ^14 C-squalene-2,3-epoxide on the TLC, which was produced due to the action of AMO 1618 (Calbiochem, USA), a squalene-2,3-oxidecyclase inhibitor, the spot containing squalene-2,3-epoxide […] was taken out and the radio-activity thereof was then determined by using a liquid scintillation counter.

[3] = test system: Triton WR-1339-Induced Hyperlipemia Mice; assay: Effect on serum lipid in Triton WR-1339-induced hyperlipemia mice; assay type: in vivo, mouse (Crj:ICR-strain); details: Mus musculus, po (3 x 33.3 mg/kg), average of 10 animals, 24 hours
Protocol: For this test, Crj:ICR-strain male mice aged 7-9 weeks were provided. […] After 24 hours, blood sampling was performed for each mouse from the abdominal aorta under anesthesia with ether, and the collected blood were placed into plastic test tubes being placed with a blood separating agent beforehand, then after 30 min. or 1 hour, the blood sampled was centrifuged at 10,000 rpm to obtain the serum. Total cholesterol value, HDL cholesterol value and total triglyceride value in the serum were respectively measured by using the measuring kits and automatic biochemical analyser.

[4] = 1 μM, control 2125 (Test 1, 1-17), 953 (Test 2, 2-47)
[5] = 1 μM, control 15448 (Test 1, 1-17), 9453 (Test 2, 2-47)
[6] = 1 μM, control 85102 (Test 1, 1-17), 53622 (Test 2, 2-47)
[7] = 3 μM, control 2125 (Test 1, 1-17), 953 (Test 2, 2-47)
[8] = 3 μM, control 15448 (Test 1, 1-17), 9453 (Test 2, 2-47)
[9] = 3 μM, control 85102 (Test 1, 1-17), 53622 (Test 2, 2-47)
[10] = 10 μM, control 2125 (Test 1, 1-17), 953 (Test 2, 2-47)
[11] = 10 μM, control 15448 (Test 1, 1-17), 9453 (Test 2, 2-47)
[12] = 10 μM, control 85102 (Test 1, 1-17), 53622 (Test 2, 2-47)
[13] = 30 μM, control 2125 (Test 1, 1-17), 953 (Test 2, 2-47)
[14] = 30 μM, control 15448 (Test 1, 1-17), 9453 (Test 2, 2-47)
[15] = 30 μM, control 85102 (Test 1, 1-17), 53622 (Test 2, 2-47)
[16] = read-out: % Change of Serum Lipid to Control Group: HDL Cholesterole
[17] = read-out: % Change of Serum Lipid to Control Group: Total Cholesterole
[18] = read-out: % Change of Serum Lipid to Control Group: Total glyceride

| SMILES | IC50 [1] [nM] | change in vivo at 100 mg/kg [3, 16] [%] | change in vivo at 100 mg/kg [3, 17] [%] | change in vivo at 100 mg/kg [3, 18] [%] | other results |
| --- | --- | --- | --- | --- | --- |
| Cc1cc(OC(=O)N2CCCCC2)c(C(C)C)cc1[N+](C)(C)C [AMO 1618, reference compound] | 140000 | – | – | – | – |
| c1ccc(CCCNc2ccc(-n3ccnc3)cc2)cc1 [Compound 1-17] | 1500 | 78 | -29 | -46 | Sterol Amount Synthesized: Squalene-2,3-epoxide [2, 4]: 3238 dpm/90min/Assay; Sterol Amount Synthesized: Cholesterol [2, 5]: 15297 dpm/90min/Assay; Sterol Amount Synthesized: Total Amount Synthesized [2, 6]: 72069 dpm/90min/Assay; Sterol Amount Synthesized: Squalene-2,3-epoxide [2, 7]: 2102 dpm/90min/Assay; Sterol Amount Synthesized: Cholesterol [2, 8]: 8938 dpm/90min/Assay; Sterol Amount Synthesized: Total Amount Synthesized [2, 9]: 82446 dpm/90min/Assay; Sterol Amount Synthesized: Squalene-2,3-epoxide [2, 10]: 7382 dpm/90min/Assay; Sterol Amount Synthesized: Cholesterol [2, 11]: 6364 dpm/90min/Assay; Sterol Amount Synthesized: Total Amount Synthesized [2, 12]: 79733 dpm/90min/Assay; Sterol Amount Synthesized: Squalene-2,3-epoxide [2, 13]: 10914 dpm/90min/Assay; Sterol Amount Synthesized: Cholesterol [2, 14]: 3558 dpm/90min/Assay; Sterol Amount Synthesized: Total Amount Synthesized [2, 15]: 95990 dpm/90min/Assay; Sterol Amount Synthesized: Squalene-2,3-epoxide ([2]; 100 μM, control 2125 (Test 1)): 12736 dpm/90min/Assay; Sterol Amount Synthesized: Cholesterol ([2]; 100 μM, control 15448 (Test 1)): 1830 dpm/90min/Assay; Sterol Amount Synthesized: Total Amount Synthesized ([2]; 100 μM, control 85102 (Test 1)): 77489 dpm/90min/Assay |
| c1ccc(CCCCNc2ccc(-n3ccnc3)cc2)cc1 [Compound 1-20] | 700 | – | – | – | – |
| c1ccc(CCCCCCNc2ccc(-n3ccnc3)cc2)cc1 [Compound 1-24] | 2600 | – | – | – | – |
| CN(CCCc1ccccc1)c1ccc(-n2ccnc2)cc1 [Compound 1-27] | 1800 | 65 | -14 | -22 | – |
| c1ccc(OCCCNc2ccc(-n3ccnc3)cc2)cc1 [Compound 1-33] | 6200 | – | – | – | – |
| c1ccc(OCCCCNc2ccc(-n3ccnc3)cc2)cc1 [Compound 1-35] | 2200 | – | – | – | – |
| c1ccc(CCCOc2ccc(-n3ccnc3)cc2)cc1 [Compound 1-47] | 7000 | 46 | -16 | -23 | – |
| CC(CCOc1ccc(-n2ccnc2)cc1)c1ccccc1 (stereo not drawn) [Compound 1-48] | 1400 | – | – | – | – |
| c1ccc(CCCCOc2ccc(-n3ccnc3)cc2)cc1 [Compound 1-49, 1-[4-(4-phenylbutoxy)phenyl]imidazole] | 680 | – | – | – | – |
| c1ccc(CCCCCCOc2ccc(-n3ccnc3)cc2)cc1 [Compound 1-53] | 1700 | – | – | – | – |
| c1ccc(OCCCOc2ccc(-n3ccnc3)cc2)cc1 [Compound 1-60] | 4800 | 52 | -22 | -37 | – |
| c1ccc(OCCCCOc2ccc(-n3ccnc3)cc2)cc1 [Compound 1-61] | 4000 | – | – | – | – |
| CCCCCCCCCCNc1ccc(-n2ccnc2)cc1 [Compound 1-115] | 10000 | 22 | -17 | -25 | – |
| CCCCCCCCCCOc1ccc(-n2ccnc2)cc1 [Compound 1-119] | 9000 | – | – | – | – |
| c1ccc(CCCOc2ccc(Cn3ccnc3)cc2)cc1 [Compound 2-47, 1-[4-(3-phenylpropyloxy)benzyl]imidazole] | 1400 | – | – | – | Sterol Amount Synthesized: Squalene-2,3-epoxide [2, 4]: 221 dpm/90min/Assay; Sterol Amount Synthesized: Cholesterol [2, 5]: 5289 dpm/90min/Assay; Sterol Amount Synthesized: Total Amount Synthesized [2, 6]: 53803 dpm/90min/Assay; Sterol Amount Synthesized: Squalene-2,3-epoxide [2, 7]: 1280 dpm/90min/Assay; Sterol Amount Synthesized: Cholesterol [2, 8]: 6333 dpm/90min/Assay; Sterol Amount Synthesized: Total Amount Synthesized [2, 9]: 56335 dpm/90min/Assay; Sterol Amount Synthesized: Squalene-2,3-epoxide [2, 10]: 1836 dpm/90min/Assay; Sterol Amount Synthesized: Cholesterol [2, 11]: 4210 dpm/90min/Assay; Sterol Amount Synthesized: Total Amount Synthesized [2, 12]: 72823 dpm/90min/Assay; Sterol Amount Synthesized: Squalene-2,3-epoxide [2, 13]: 7126 dpm/90min/Assay; Sterol Amount Synthesized: Cholesterol [2, 14]: 3787 dpm/90min/Assay; Sterol Amount Synthesized: Total Amount Synthesized [2, 15]: 63661 dpm/90min/Assay |
| c1ccc(CCCCOc2ccc(Cn3ccnc3)cc2)cc1 [Compound 2-49, 1-[4-(4-phenylbutyloxy)benzyl]imidazole] | 1200 | 20 | -16 | -10 | – |
| c1ccc(OCCOc2ccc(Cn3ccnc3)cc2)cc1 [Compound 2-59, 1-[4-(2-phenoxyethyloxy)benzyl]imidazole] | 21000 | – | – | – | – |
| c1ccc(OCCCOc2ccc(Cn3ccnc3)cc2)cc1 [Compound 2-60] | 10000 | – | – | – | – |
| O=S(=O)(CCCOc1ccc(Cn2ccnc2)cc1)c1ccccc1 [Compound 2-68, 1-[4-(3-benzenesulfonylpropyloxy)benzyl]imidazole] | < 1000 | – | – | – | – |
| Cc1ccc(OCCCOc2ccc(Cn3ccnc3)cc2)cc1 [Compound 2-95, 1-{4-[3-(4-tolyloxy)propyloxy]benzyl} imidazole] | 2400 | – | – | – | – |
| CC[C@H](C)C(=O)O[C@H]1C[C@H](O)C=C2C=C[C@H](C)[C@H](CC[C@@H](O)C[C@@H](O)CC(=O)O)[C@H]21 [Pravastatin, reference compound] | – | -8 | -16 | -28 | – |
